Test results from PubChem BioAssay AID434987 (Southern Research Specialized Biocontainment Screening …, 2010).
pIC50: −log10 of the molar value. The source made the active and inactive calls. No rule for the calls is given here.

Test system: M. tuberculosis H37Rv growth inhibition with meropenem
Test: dose response, H37Rv, with and without meropenem (AID 434987);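 also: growth over 7 days at 37 °C before Alamar Blue read on day 9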
[1] = M. tuberculosis H37Rv growth inhibition, measured here: IC50 without meropenem
[2] = M. tuberculosis H37Rv growth inhibition, measured here: IC90 without meropenem
[3] = measured here: IC90 with meropenem

Row | Compound | pIC50 | pIC50 [1] | IC90 [2] | IC90 [3] | IC50
1 | COc1cc(NC(=O)c2cccc(Cl)c2)c(OC)cc1NC(=O)CN1CCCCC1 | 5.13 | 4.62 | 61.4 µM | 75.5 µM | 
2 | O=C(NC1c2ccccc2-c2ccccc21)c1ccco1 |  | < 4.00 | > 100 µM | > 100 µM | > 100 µM (inactive)
3 | COc1cc(CNCCO)cc(Br)c1OCc1ccccc1Cl |  | 4.32 | 53.7 µM | 52.7 µM | 46.2 µM (inactive)
4 | O=C1N/C(=N\N=C\c2ccc3ncccc3c2)SC1Cc1ccc(SC(F)F)cc1 (stereo unspecified) |  | < 4.00 | > 100 µM | > 100 µM | > 100 µM (inactive)
5 | NC(=O)CC(NC(=O)Cc1ccc(Br)cc1)c1ccc(NC2CCCCCC2)c([N+](=O)[O-])c1 (stereo unspecified) |  | < 4.00 | > 100 µM | > 100 µM | 72.9 µM (inactive)
6 | O=C(CCNc1ccccc1)c1cccc([N+](=O)[O-])c1 | 4.93 | < 4.00 | > 100 µM | 45.8 µM | 
7 | COc1ccc(C(=O)/C=C/c2ccc(O)cc2)c(O)c1CC=C(C)C |  | 4.19 | 98.4 µM | 75.1 µM | 54.3 µM (inactive)
8 | CCOC(=O)C1=C(N)OC(CCl)=C(C#N)C1c1ccsc1 (stereo unspecified) |  | < 4.00 | > 100 µM | > 100 µM | > 100 µM (inactive)
9 | Cc1ccccc1OCC(=O)N/N=C/c1cccc(Oc2ccc([N+](=O)[O-])cc2[N+](=O)[O-])c1 | 5.94 | 5.37 | 47.8 µM | 5.4 µM | 
10 | CSc1nc2cc3c(cc2n1C(=O)c1ccc(C)cc1)OCCO3 | 5.29 | < 4.00 | > 100 µM | > 100 µM | 
11 | CSc1ccc(/C=C/C(=O)NC23CC4CC(CC(C4)C2)C3)cc1 | 5.30 | 4.57 | > 100 µM | 16.1 µM | 
12 | COc1cccc(-c2nnn(CC(=O)Nc3cc(OC)c(NC(=O)c4ccco4)cc3OC)n2)c1 | 4.51 | < 4.00 | > 100 µM | > 100 µM | 
13 | Cn1nnnc1Sc1ncnc2scc(-c3ccc(C(F)(F)F)cc3)c12 |  | 4.84 | 24.4 µM | 15 µM | 6.75 µM (inactive)
14 | CCCCNC(=O)c1onc(CSc2ccccc2CC)c1C(=O)O |  | 4.35 | > 100 µM | 23.7 µM | 22.3 µM (inactive)
15 | COc1cc(NC(=O)c2ccccc2F)c(OC)cc1NC(=O)CN1CCOCC1 | 4.53 | < 4.00 | > 100 µM | > 50 µM | 
16 | O=c1c2c3n(c(=S)nc2[nH]n1-c1ccccc1)CCCCC3 |  | 4.57 | > 100 µM | 13.3 µM | 12.4 µM (inactive)
17 | Cc1cc(C)c(C)c(S(=O)(=O)N2C(=S)NC(=O)C2C(C)C)c1C (stereo unspecified) | 5.00 | 4.41 | > 100 µM | > 100 µM | 
18 | COc1ccc2ccccc2c1/C=N/NC(=O)c1cccc(C)c1 |  | < 4.00 | > 100 µM | > 100 µM | 64.9 µM (inactive)
19 | O=C(COC(=O)c1ccc(Cl)cc1[N+](=O)[O-])NNC(=O)c1cccs1 |  | 4.41 | 53.9 µM | 51.1 µM | 24.8 µM (inactive)
20 | CCc1ccc(NC(=O)C2C3/C=C\CCCCC32)cc1 (stereo unspecified) |  | < 4.00 | > 100 µM | > 100 µM | 72 µM (inactive)
21 | COc1ccc(CNC(=O)c2sc3nc4c(c(C(F)(F)F)c3c2N)CCC4)cc1 |  | 4.98 | > 25 µM | > 100 µM | 7.76 µM (inactive)
22 | COCCCNCCOCCOc1ccc(C)cc1Br |  | < 4.00 | > 100 µM | > 100 µM | > 100 µM (inactive)
23 | Cc1cc(C2C(=O)c3ccccc3C2=O)c(C)c(C)c1C | 5.42 | 4.47 | > 100 µM | 16.4 µM | 
24 | Cc1[nH]n(-c2ccccc2)c(=O)c1/C=N/NC(=O)c1ccoc1C | 6.18 | < 4.00 | > 100 µM | 3.01 µM | 
25 | N#Cc1c(C(F)(F)F)cc(-c2ccccc2)nc1SCc1nc(N)nc(N2CCOCC2)n1 |  | < 4.00 | > 100 µM | > 100 µM | > 100 µM (inactive)
26 | COc1cc(C(=O)NC2CCCCC2)ccc1OCc1ccc(Cl)cc1Cl |  | < 4.00 | > 100 µM | > 100 µM | > 100 µM (inactive)
27 | N#C/C(C(=O)NCc1ccco1)=C1/SC=C(c2ccccc2)N1c1ccccc1 |  | < 4.00 | > 100 µM | > 100 µM | > 100 µM (inactive)
28 | O=S1(=O)CCO[C@H]2Cc3ccccc3[C@H]2N1Cc1ccc(Cl)cc1 |  | < 4.00 | > 100 µM | > 100 µM | > 100 µM (inactive)
29 | COC(=O)Cn1nc(-c2ccccc2)c2ccccc21 |  | < 4.00 | > 100 µM | > 100 µM | > 100 µM (inactive)
